Assay results reported in patent US20230310428A1, “EGFR INHIBITOR AND PREPARATION METHOD AND USE THEREOF” (HONGYUN BIOTECH CO., LTD., priority 2020, published 2023).

Experiments:
Assay in all cases: Growth inhibitory activity of compounds on BaF3 cell lines stably transfected with kinase (MTS, 48 h)
Type in all cases: cell-based
[1] = target: T1, various mutants of kinase EGFR (BaF3 cell lines stably transfected with kinase) (Homo sapiens, UniProt P00533); details: BaF3 cells stably transfected with EGFR Δ19Del, read-out: IC50, growth inhibition, Δ19Del
T1 construct: other: BaF3 cells stably transfected with EGFR Δ19Del; MTS, 48 h; other: BaF3 cell line stably transfected with EGFR Δ19Del
T1 sequence (P00533 with tags, fused parts or gaps DEL746-750): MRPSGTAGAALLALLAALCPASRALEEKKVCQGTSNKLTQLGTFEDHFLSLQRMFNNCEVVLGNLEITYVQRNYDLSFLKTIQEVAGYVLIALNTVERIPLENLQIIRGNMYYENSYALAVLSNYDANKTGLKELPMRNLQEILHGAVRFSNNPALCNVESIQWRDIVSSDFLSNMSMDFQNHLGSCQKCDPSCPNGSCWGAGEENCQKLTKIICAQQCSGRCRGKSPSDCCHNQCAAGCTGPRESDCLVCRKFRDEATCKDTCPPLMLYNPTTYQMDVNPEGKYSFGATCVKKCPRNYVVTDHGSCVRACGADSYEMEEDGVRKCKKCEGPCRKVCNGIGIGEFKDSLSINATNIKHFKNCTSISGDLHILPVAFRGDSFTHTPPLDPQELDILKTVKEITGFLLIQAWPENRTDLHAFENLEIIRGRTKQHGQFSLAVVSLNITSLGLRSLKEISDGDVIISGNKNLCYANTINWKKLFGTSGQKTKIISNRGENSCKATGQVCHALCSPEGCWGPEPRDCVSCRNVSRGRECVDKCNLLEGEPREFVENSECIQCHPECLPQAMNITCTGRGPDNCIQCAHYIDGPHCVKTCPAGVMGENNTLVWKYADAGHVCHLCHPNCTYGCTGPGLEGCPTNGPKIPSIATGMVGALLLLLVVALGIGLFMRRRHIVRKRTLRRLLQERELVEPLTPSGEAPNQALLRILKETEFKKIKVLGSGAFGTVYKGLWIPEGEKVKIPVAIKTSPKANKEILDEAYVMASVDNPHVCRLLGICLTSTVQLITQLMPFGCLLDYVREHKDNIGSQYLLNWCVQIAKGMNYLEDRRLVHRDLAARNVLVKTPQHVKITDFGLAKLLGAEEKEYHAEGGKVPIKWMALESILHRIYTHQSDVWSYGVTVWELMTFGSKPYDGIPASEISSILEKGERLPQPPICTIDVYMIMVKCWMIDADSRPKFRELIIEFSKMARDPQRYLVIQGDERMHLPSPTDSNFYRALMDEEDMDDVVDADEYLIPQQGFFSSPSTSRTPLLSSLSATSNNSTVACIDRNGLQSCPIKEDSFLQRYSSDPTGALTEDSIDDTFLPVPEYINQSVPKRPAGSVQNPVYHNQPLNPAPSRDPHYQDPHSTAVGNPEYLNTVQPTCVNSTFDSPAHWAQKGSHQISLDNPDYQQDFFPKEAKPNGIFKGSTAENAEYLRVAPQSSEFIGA
Procedure, shortened: (§1)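 Growth is measured by MTS reduction (OD 490 nm) after 48 h compound exposure at up to 10 µM in 8 steps of 1/3. Inhibition is calculated against a 0.1% DMSO control and cell-free blank, and IC50 is derived from it.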

[2] = target: T2, various mutants of kinase EGFR (BaF3 cell lines stably transfected with kinase) (Homo sapiens, UniProt P00533, C797S/L858R/T790M); details: BaF3 cells stably transfected with EGFR L858R/T790M/C797S, read-out: IC50, growth inhibition, L858R/T790M/C797S
T2 construct: expressed in transfected cells; host or cells: BaF3
Procedure, shortened: as §1

[3] = target: T3, various mutants of kinase EGFR (BaF3 cell lines stably transfected with kinase) (Homo sapiens, UniProt P00533, L858R); details: BaF3 cells stably transfected with EGFR L858R, read-out: IC50, growth inhibition, L858R
T3 construct: expressed in transfected cells; host or cells: BaF3
T3 sequence (P00533 25-1210 L858R): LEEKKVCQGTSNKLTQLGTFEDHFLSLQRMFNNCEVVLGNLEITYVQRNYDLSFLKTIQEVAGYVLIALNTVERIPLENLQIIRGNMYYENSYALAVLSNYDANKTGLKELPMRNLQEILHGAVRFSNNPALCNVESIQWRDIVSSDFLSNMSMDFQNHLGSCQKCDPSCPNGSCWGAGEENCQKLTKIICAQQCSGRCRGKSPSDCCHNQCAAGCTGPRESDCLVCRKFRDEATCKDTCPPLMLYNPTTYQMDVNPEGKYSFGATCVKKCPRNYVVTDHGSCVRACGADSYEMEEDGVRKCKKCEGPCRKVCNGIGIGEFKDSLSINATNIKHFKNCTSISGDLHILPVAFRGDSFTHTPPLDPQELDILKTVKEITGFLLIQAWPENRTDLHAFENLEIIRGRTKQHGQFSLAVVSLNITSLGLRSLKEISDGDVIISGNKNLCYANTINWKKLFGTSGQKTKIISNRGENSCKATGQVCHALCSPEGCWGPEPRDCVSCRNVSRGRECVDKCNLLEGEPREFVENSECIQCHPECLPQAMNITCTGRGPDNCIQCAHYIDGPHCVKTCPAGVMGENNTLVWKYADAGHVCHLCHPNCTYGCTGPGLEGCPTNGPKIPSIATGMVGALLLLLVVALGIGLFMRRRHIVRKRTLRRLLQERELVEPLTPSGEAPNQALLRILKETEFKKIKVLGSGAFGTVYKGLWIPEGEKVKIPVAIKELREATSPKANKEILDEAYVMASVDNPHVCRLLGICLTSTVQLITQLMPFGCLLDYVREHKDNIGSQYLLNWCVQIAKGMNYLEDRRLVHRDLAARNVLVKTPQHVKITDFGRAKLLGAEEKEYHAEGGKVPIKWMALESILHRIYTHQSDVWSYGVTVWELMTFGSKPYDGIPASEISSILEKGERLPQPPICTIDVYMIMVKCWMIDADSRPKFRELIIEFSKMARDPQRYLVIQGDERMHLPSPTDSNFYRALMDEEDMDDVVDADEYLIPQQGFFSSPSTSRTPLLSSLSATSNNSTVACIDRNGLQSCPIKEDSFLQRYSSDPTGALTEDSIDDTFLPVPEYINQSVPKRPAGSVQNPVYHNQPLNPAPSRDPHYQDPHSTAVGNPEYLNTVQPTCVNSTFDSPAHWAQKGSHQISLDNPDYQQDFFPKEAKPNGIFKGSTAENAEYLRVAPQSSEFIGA
Procedure, shortened: as §1

[4] = target: T4, various mutants of kinase EGFR (BaF3 cell lines stably transfected with kinase) (Homo sapiens, UniProt P00533, L858R/T790M); details: BaF3 cells stably transfected with EGFR L858R/T790M, read-out: IC50, growth inhibition, L858R/T790M
T4 construct: expressed in transfected cells; host or cells: BaF3
T4 sequence (P00533 25-1210 T790M/L858R): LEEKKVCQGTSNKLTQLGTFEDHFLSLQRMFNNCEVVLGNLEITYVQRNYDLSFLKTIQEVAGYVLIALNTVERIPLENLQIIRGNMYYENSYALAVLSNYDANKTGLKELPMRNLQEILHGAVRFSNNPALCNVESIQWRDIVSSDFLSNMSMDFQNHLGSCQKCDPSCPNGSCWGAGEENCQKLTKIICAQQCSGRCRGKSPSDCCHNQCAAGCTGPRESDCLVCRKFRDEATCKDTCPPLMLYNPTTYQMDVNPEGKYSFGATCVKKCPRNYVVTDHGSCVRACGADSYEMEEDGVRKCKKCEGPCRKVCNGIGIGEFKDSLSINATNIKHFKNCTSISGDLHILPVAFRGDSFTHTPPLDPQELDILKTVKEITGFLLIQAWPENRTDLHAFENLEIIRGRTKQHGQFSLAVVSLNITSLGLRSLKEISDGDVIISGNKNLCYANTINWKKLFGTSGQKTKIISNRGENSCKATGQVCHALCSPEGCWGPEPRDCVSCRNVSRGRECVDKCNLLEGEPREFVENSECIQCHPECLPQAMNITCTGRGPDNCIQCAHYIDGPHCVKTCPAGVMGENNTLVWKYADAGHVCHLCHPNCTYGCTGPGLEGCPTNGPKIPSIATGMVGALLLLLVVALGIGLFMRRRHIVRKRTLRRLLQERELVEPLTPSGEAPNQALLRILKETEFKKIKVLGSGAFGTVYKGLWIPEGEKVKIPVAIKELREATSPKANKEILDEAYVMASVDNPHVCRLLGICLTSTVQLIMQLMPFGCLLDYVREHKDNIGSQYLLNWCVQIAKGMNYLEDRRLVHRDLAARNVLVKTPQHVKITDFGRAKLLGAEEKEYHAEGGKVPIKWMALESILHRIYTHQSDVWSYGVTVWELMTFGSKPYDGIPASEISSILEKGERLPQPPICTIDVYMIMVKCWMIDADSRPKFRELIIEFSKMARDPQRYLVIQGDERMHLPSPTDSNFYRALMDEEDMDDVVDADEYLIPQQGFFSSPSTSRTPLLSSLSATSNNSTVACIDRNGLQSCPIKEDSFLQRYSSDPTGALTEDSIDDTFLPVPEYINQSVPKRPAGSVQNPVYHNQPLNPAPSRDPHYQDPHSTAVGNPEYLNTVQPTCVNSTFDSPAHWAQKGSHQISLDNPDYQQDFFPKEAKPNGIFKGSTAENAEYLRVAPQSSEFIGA
Procedure, shortened: as §1

[5] = target: T5, various mutants of kinase EGFR (BaF3 cell lines stably transfected with kinase) (Homo sapiens, UniProt P00533, T790M/C797S, form not given); details: BaF3 cells stably transfected with EGFR Δ19Del/T790M/C797S, read-out: IC50, growth inhibition, Δ19Del/T790M/C797S
T5 construct: other: BaF3 cells stably transfected with EGFR Δ19Del/T790M/C797S; MTS, 48; other: BaF3 cell line stably transfected with EGFR Δ19Del/T790M/C7
Procedure, shortened: as §1

[6] = target: T6, various mutants of kinase EGFR (BaF3 cell lines stably transfected with kinase) (Homo sapiens, UniProt P00533, T790M, form not given); details: BaF3 cells stably transfected with EGFR Δ19Del/T790M, read-out: IC50, growth inhibition, Δ19Del/T790M
T6 construct: other: BaF3 cells stably transfected with EGFR Δ19Del/T790M; MTS, 48 h; other: BaF3 cell line stably transfected with EGFR Δ19Del/T790M; MTS, 48
T6 sequence (P00533 with tags, fused parts or gaps DEL746-750/T790M, form open): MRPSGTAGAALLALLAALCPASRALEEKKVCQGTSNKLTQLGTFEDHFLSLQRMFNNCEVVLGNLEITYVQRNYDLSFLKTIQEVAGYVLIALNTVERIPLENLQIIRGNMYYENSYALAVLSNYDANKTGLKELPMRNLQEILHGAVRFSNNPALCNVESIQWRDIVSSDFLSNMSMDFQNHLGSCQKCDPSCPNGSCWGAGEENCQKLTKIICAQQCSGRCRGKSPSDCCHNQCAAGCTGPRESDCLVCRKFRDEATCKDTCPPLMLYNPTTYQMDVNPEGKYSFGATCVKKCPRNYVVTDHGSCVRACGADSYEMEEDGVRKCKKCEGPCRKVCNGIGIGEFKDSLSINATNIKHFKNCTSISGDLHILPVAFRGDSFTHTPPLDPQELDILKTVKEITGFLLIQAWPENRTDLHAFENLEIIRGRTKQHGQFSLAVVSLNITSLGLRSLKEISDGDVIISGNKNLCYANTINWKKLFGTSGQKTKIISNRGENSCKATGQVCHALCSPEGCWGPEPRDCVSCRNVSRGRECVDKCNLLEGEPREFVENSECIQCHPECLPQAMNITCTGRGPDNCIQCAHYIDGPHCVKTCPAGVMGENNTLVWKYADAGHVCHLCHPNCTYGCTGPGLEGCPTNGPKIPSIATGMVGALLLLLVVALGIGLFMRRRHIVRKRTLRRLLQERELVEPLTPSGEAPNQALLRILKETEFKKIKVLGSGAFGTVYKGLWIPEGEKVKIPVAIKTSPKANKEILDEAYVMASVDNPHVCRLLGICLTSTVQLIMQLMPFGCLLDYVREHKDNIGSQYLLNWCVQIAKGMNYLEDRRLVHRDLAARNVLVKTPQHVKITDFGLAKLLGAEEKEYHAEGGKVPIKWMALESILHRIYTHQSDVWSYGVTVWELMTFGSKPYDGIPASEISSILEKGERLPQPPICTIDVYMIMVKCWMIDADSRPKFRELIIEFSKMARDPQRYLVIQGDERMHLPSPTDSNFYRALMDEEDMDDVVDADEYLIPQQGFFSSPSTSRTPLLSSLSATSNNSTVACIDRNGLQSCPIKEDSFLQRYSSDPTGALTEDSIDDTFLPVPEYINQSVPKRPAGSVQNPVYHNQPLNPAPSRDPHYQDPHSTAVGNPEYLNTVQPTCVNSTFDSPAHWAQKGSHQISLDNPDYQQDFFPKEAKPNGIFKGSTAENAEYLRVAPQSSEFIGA
Procedure, shortened: as §1

SMILES	IC50 [1] [nM]	IC50 [2] [nM]	IC50 [3] [nM]	IC50 [4] [nM]	IC50 [5] [nM]	IC50 [6] [nM]
CCc1cc(Nc2ncc(Cl)c(Nc3ccc4nccnc4c3N(C)S(C)(=O)=O)n2)c(OC)cc1N1CCC(N(C)C)CC1 [Compound I-170]	≤ 50	≤ 50	≤ 50	≤ 50	≤ 50	≤ 50
COc1cc(N2CCN(C)CC2)c(C)cc1Nc1ncc(Cl)c(Nc2ccc3nccnc3c2N(C)S(C)(=O)=O)n1 [Compound I-171]	50 to 500	≤ 50	≤ 50	≤ 50	≤ 50	≤ 50
CCc1cc(Nc2ncc(Cl)c(Nc3ccc4nccnc4c3N(C)S(C)(=O)=O)n2)c(OC)cc1N1CCN(C)CC1 [Compound I-172]	≤ 50	≤ 50	≤ 50	≤ 50	≤ 50	≤ 50
COc1cc(N2CCC(N(C)C)C2)c(C)cc1Nc1ncc(Cl)c(Nc2ccc3nccnc3c2N(C)S(C)(=O)=O)n1 (stereo not drawn) [Compound I-173]	≤ 50	≤ 50	≤ 50	≤ 50	≤ 50	≤ 50
CCc1cc(Nc2ncc(Cl)c(Nc3ccc4nccnc4c3N(C)S(C)(=O)=O)n2)c(OC)cc1N1CCC(N(C)C)C1 (stereo not drawn) [Compound I-174]	≤ 50	≤ 50	≤ 50	≤ 50	≤ 50	≤ 50
COc1nc(N2CCC(N3CCN(C)CC3)CC2)ccc1Nc1ncc(F)c(Nc2ccc3nccnc3c2N(C)S(C)(=O)=O)n1 [Compound I-175]	500 to 2500	500 to 2500	500 to 2500	500 to 2500	50 to 500	500 to 2500
CCc1cc(Nc2ncc(F)c(Nc3ccc4nccnc4c3N(C)S(C)(=O)=O)n2)c(OC)nc1N1CCC(N2CCN(C)CC2)CC1 [Compound I-177]	≤ 50	≤ 50	≤ 50	≤ 50	≤ 50	≤ 50
CN1CCN(C2CCN(c3ccc(Nc4ncc(F)c(Nc5ccc6nccnc6c5N(C)S(C)(=O)=O)n4)c(OC(F)(F)F)c3)CC2)CC1 [Compound I-178]	50 to 500	500 to 2500	50 to 500	500 to 2500	50 to 500	500 to 2500
CCc1cc(Nc2ncc(F)c(Nc3ccc4nccnc4c3N(C)S(C)(=O)=O)n2)c(OC(F)(F)F)cc1N1CCC(N2CCN(C)CC2)CC1 [Compound I-179]	50 to 500	50 to 500	50 to 500	50 to 500	≤ 50	50 to 500
C=Cc1cc(Nc2ncc(F)c(Nc3ccc4nccnc4c3N(C)S(C)(=O)=O)n2)c(OC(F)(F)F)cc1N1CCC(N2CCN(C)CC2)CC1 [Compound I-180]	≤ 50	50 to 500	≤ 50	≤ 50	≤ 50	50 to 500
COc1cc(N2CCC(N3CCN(C)CC3)CC2)c(CC2CC2)cc1Nc1ncc(F)c(Nc2ccc3nccnc3c2N(C)S(C)(=O)=O)n1 [Compound I-181]	≤ 50	50 to 500	≤ 50	≤ 50	≤ 50	50 to 500
COc1cc(N2CCC(N3CCN(C)CC3)CC2)c(Cc2ccccc2)cc1Nc1ncc(F)c(Nc2ccc3nccnc3c2N(C)S(C)(=O)=O)n1 [Compound I-182]	500 to 2500	500 to 2500	500 to 2500	500 to 2500	500 to 2500	500 to 2500
COc1cc(N2CCC(N(C)C)CC2)c(C)cc1Nc1ncc(F)c(Nc2ccc3nccnc3c2N(C)S(C)(=O)=O)n1 [Compound I-183]	≤ 50	≤ 50	≤ 50	≤ 50	≤ 50	50 to 500
CCc1cc(Nc2ncc(F)c(Nc3ccc4nccnc4c3N(C)S(C)(=O)=O)n2)c(OC)cc1N1CCC(N(C)C)CC1 [Compound I-184]	≤ 50	≤ 50	≤ 50	≤ 50	≤ 50	50 to 500
